Test results reported in patent US6340581B1, “Biological production of products from waste gases” (Bioengineering Resources, Inc., priority 1992, dated 2002).
Where two headings read alike, the source gives them in different places.

Columns and labels:
[1] = Acetic acid distribution coefficient study: solvents for recovering acetic acid from the permeate; format: physicochemical
[2] = Distribution coefficients of mixed solvents; format: physicochemical; settings: oleyl alcohol 10 cc plus Cyc or TBP
[3] = aqueous phase after contact with the solvent

Molecule | Equilibrium Aqueous Acetic Acid Concentration [1, 3] [g/L] | Acetic Acid Distribution Coefficients ([1]; solvent vs aqueous phase) | Acetic Acid Distribution Coefficients [1] | Equilibrium Aqueous Acetic Acid Concentration [1] [g/L] | Distribution Coefficients [2]
CCCCC(CC)CO (centres unmarked) [2-ethyl-1-hexanol] | 3.308 | 0.77 | – | – | –
CC1CCCC(O)C1 (centres unmarked) [3-methylcyclohexanol] | 2.110 | 1.26 | – | – | –
ClC(Cl)Cl [Chloroform] | – | – | 0.09 | 5.128 | –
O=C1CCCCC1 [Cyclohexanone] | 2.702 | 1.66 | – | – | –
CCCCCCCCCC [Decane] | 5.968 | 0.08 | – | – | –
CCCCOP(=O)(O)OCCCC [Dibutyl phosphate] | – | – | 0.18 | 4.615 | –
CCCCCCCCCCCC [Dodecane] | 4.654 | 0.13 | – | – | –
CCCCCCCCCCCCOC(C)=O [Dodecyl acetate] | 5.787 | 0.15 | – | – | –
CCOC(C)=O [Ethyl acetate] | 4.550 | 0.41 | – | – | –
CCCC(=O)OCC [Ethyl butyrate] | 4.665 | 0.42 | – | – | –
CCCCCCCCCCCCCCCC [Hexadecane] | 5.866 | 1.13 | – | – | –
CCCCCC [Hexane] | – | – | 0.0 | 6.559 | –
CCCCCCCCO [Octanol] | 4.358 | 0.45 | – | – | –
CCCCCCCC/C=C\CCCCCCCCO [Oleyl alcohol] | 5.114 | 0.28 | – | – | 0.17
CCCCCCCCN(CCCCCCCC)CCCCCCCC [Trioctylamine] | 3.785 | 0.31 | – | – | –
CCCCCCCCCCCO [Undecyl alcohol] | 4.528 | 0.40 | – | – | –
Dexyl alcohol | 3.890 | 0.42 | – | – | –
